Source: patent publication US6620833B1, “Substituted benzimidazoles, production and use thereof as agents for combating parasitic protozoas” (Bayer Aktiengesellschaft, priority 1998, dated 2003)

Legend:
Assay type in all cases: in vivo
Eimeria maxima = assay: Cage experiment on coccidiosis/chicks, E. maxima readout; settings: second symbol of cell
Eimeria tenella = assay: Cage experiment on coccidiosis/chicks, E. tenella readout; settings: third symbol of cell
Eimeria acervulina = assay: Cage experiment on coccidiosis/chicks, E. acervulina readout; settings: first symbol of cell
Further: key: 2=full action; 1=slight action; 0=inactive; D=death.

CCCCN(Cn1c(C(F)(F)F)nc2c(Br)cc3c(c21)OC(F)(F)C(F)(F)O3)C(=O)OCC [Ex. 5]
2: Efficacy against Eimeria maxima (Eimeria maxima; Table 4, dose 2.5 ppm) | Efficacy against Eimeria tenella (Eimeria tenella; Table 4, dose 10 ppm)
1: Efficacy against Eimeria maxima (Eimeria maxima; Table 4, dose 5 ppm) | Efficacy against Eimeria maxima (Eimeria maxima; Table 4, dose 10 ppm) | Efficacy against Eimeria tenella (Eimeria tenella; Table 4, dose 2.5 ppm) | Efficacy against Eimeria tenella (Eimeria tenella; Table 4, dose 5 ppm) | Efficacy against Eimeria acervulina (Eimeria acervulina; Table 4, dose 2.5 ppm) | Efficacy against Eimeria acervulina (Eimeria acervulina; Table 4, dose 5 ppm) | Efficacy against Eimeria acervulina (Eimeria acervulina; Table 4, dose 10 ppm)

CCOC(=O)N(Cn1c(C(F)(F)F)nc2c(Br)cc3c(c21)OC(F)(F)C(F)(F)O3)C(C)C [Ex. 6]
2: Efficacy against Eimeria maxima (Eimeria maxima; Table 4, dose 5 ppm) | Efficacy against Eimeria maxima (Eimeria maxima; Table 4, dose 10 ppm) | Efficacy against Eimeria tenella (Eimeria tenella; Table 4, dose 5 ppm) | Efficacy against Eimeria tenella (Eimeria tenella; Table 4, dose 10 ppm) | Efficacy against Eimeria acervulina (Eimeria acervulina; Table 4, dose 5 ppm) | Efficacy against Eimeria acervulina (Eimeria acervulina; Table 4, dose 10 ppm)
1: Efficacy against Eimeria maxima (Eimeria maxima; Table 4, dose 2.5 ppm) | Efficacy against Eimeria tenella (Eimeria tenella; Table 4, dose 2.5 ppm) | Efficacy against Eimeria acervulina (Eimeria acervulina; Table 4, dose 2.5 ppm)

CCOC(=O)N(Cn1c(C(F)(F)F)nc2c(Cl)cc3c(c21)OC(F)(F)C(F)(F)O3)C(C)C [Ex. 7]
1: Efficacy against Eimeria maxima (Eimeria maxima; Table 4, dose 2.5 ppm) | Efficacy against Eimeria tenella (Eimeria tenella; Table 4, dose 10 ppm)
2: Efficacy against Eimeria maxima (Eimeria maxima; Table 4, dose 5 ppm) | Efficacy against Eimeria maxima (Eimeria maxima; Table 4, dose 10 ppm) | Efficacy against Eimeria tenella (Eimeria tenella; Table 4, dose 2.5 ppm) | Efficacy against Eimeria tenella (Eimeria tenella; Table 4, dose 5 ppm) | Efficacy against Eimeria acervulina (Eimeria acervulina; Table 4, dose 2.5 ppm) | Efficacy against Eimeria acervulina (Eimeria acervulina; Table 4, dose 5 ppm) | Efficacy against Eimeria acervulina (Eimeria acervulina; Table 4, dose 10 ppm)

COC(=O)N(Cn1c(C(F)(F)F)nc2c(Cl)cc3c(c21)OC(F)(F)C(F)(F)O3)c1ccccc1C [Ex. 8]
0: Efficacy against Eimeria maxima (Eimeria maxima; Table 4, dose 2.5 ppm) | Efficacy against Eimeria tenella (Eimeria tenella; Table 4, dose 2.5 ppm) | Efficacy against Eimeria acervulina (Eimeria acervulina; Table 4, dose 2.5 ppm) | Efficacy against Eimeria acervulina (Eimeria acervulina; Table 4, dose 5 ppm)
1: Efficacy against Eimeria maxima (Eimeria maxima; Table 4, dose 5 ppm) | Efficacy against Eimeria tenella (Eimeria tenella; Table 4, dose 5 ppm)
2: Efficacy against Eimeria maxima (Eimeria maxima; Table 4, dose 10 ppm) | Efficacy against Eimeria tenella (Eimeria tenella; Table 4, dose 10 ppm) | Efficacy against Eimeria acervulina (Eimeria acervulina; Table 4, dose 10 ppm)

CCOC(=O)N(Cn1c(C(F)(F)F)nc2c(Cl)cc3c(c21)OC(F)(F)C(F)(F)O3)C1CCCCC1 [Ex. 9]
1: Efficacy against Eimeria maxima (Eimeria maxima; Table 4, dose 2.5 ppm) | Efficacy against Eimeria tenella (Eimeria tenella; Table 4, dose 2.5 ppm) | Efficacy against Eimeria tenella (Eimeria tenella; Table 4, dose 5 ppm)
0: Efficacy against Eimeria acervulina (Eimeria acervulina; Table 4, dose 2.5 ppm)
2: Efficacy against Eimeria maxima (Eimeria maxima; Table 4, dose 5 ppm) | Efficacy against Eimeria maxima (Eimeria maxima; Table 4, dose 10 ppm) | Efficacy against Eimeria tenella (Eimeria tenella; Table 4, dose 10 ppm) | Efficacy against Eimeria acervulina (Eimeria acervulina; Table 4, dose 5 ppm) | Efficacy against Eimeria acervulina (Eimeria acervulina; Table 4, dose 10 ppm)
